Measurements taken from the supplement of paper PMC4862054.

Legend:
Conditions in all cases: incubation time: 72 h
CAL-120 [1] = experiment: drug sensitivity score (DSS), CellTiter-Glo (DSS (AUC-based score)); higher = stronger drug effect (viability inhibition or cytotoxicity); extreme values may be limits of the assay
Summary of the method: (§1)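 Breast cancer cell lines were seeded in 20 µl suspension into 384-well plates already holding compound and incubated for 72 h. Each compound was tested at 5 concentrations in 10-fold steps across its own 10,000-fold range. Plates were normalised to 0.1 % DMSO and a positive kill control after CellTox Green and then CellTiter-Glo readings. The area under the fitted dose-response curve served as the basis for the drug sensitivity score.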

MDA-MB-468 = experiment: normalised viability (% of control), CellTiter-Blue; higher = more viable cells (about 100 = DMSO control)
Experimental: (§2)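 DSRT, CellTiter-Blue viability, 72 h incubation. Signal is normalised to DMSO and benzethonium chloride controls. Value is the normalised response at dose 3.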

SK-BR-3 = experiment: as above
Experimental: as §2

CAL-120 [2] = experiment: as above
Experimental: as §2

BT-549 [3] = experiment: as above
Experimental: as §2

Hs578T [4] = experiment: as above
Experimental: as §2

CAL-85-1 = experiment: as above
Experimental: as §2

MDA-MB-231 = experiment: as above
Experimental: as §2

HCC1599 = experiment: as above
Experimental: as §2

MDA-MB-453 [5] = experiment: as above
Experimental: as §2

HCC1143 [6] = experiment: as above
Experimental: as §2

DU-4475 [7] = experiment: as above
Experimental: as §2

MDA-MB-436 = experiment: as above
Experimental: as §2

CAL-148 [8] = experiment: as above
Experimental: as §2

BT-474 [9] = experiment: as above
Experimental: as §2

CAL-51 [10] = experiment: as above
Experimental: as §2

HCC1937 = experiment: as above
Experimental: as §2

HDQ-P1 [11] = experiment: as above
Experimental: as §2

MFM-223 = experiment: as above
Experimental: as §2

CAL-120 [12] = experiment: drug sensitivity score (DSS), CellTox Green (DSS (AUC-based score)); higher = stronger drug effect (viability inhibition or cytotoxicity); extreme values may be limits of the assay
Summary of the method: as §1

BT-549 [13] = experiment: as above
Summary of the method: as §1

Hs578T [14] = experiment: as above
Summary of the method: as §1

MDA-MB-453 [15] = experiment: as above
Summary of the method: as §1

HCC1143 [16] = experiment: as above
Summary of the method: as §1

DU-4475 [17] = experiment: as above
Summary of the method: as §1

CAL-148 [18] = experiment: as above
Summary of the method: as §1

BT-474 [19] = experiment: as above
Summary of the method: as §1

CAL-51 [20] = experiment: as above
Summary of the method: as §1

HDQ-P1 [21] = experiment: as above
Summary of the method: as §1

SMILES | drug sensitivity score (CAL-120 [1]) | normalised viability (MDA-MB-468; 100 nM) [%] | normalised viability (SK-BR-3; 100 nM) [%] | normalised viability (CAL-120 [2]; 100 nM) [%] | normalised viability (BT-549 [3]; 100 nM) [%] | normalised viability (Hs578T [4]; 100 nM) [%] | normalised viability (CAL-85-1; 10 nM) [%] | normalised viability (MDA-MB-231; 100 nM) [%] | normalised viability (HCC1599; 100 nM) [%] | normalised viability (MDA-MB-453 [5]; 10 nM) [%] | drug sensitivity score (CAL-120 [12]) | drug sensitivity score (BT-549 [13]) | drug sensitivity score (Hs578T [14]) | drug sensitivity score (MDA-MB-453 [15]) | drug sensitivity score (HCC1143 [16]) | drug sensitivity score (DU-4475 [17]) | drug sensitivity score (CAL-148 [18]) | drug sensitivity score (BT-474 [19]) | drug sensitivity score (CAL-51 [20]) | drug sensitivity score (HDQ-P1 [21]) | further results
O=C(Nc1ccncc1)C(=O)c1cn(Cc2ccc(Cl)cc2)c2ccccc12 [Indibulin] | 6.2 | 61.1 | 18.9 | 36.5 | 69.9 | 67.7 | 106 | 52 | 146 | 84.8 | 0.995 | 0 | 1.65 | 0 | 0 | 0 | 0 | 1.31 | 12.5 | 0 | normalised viability (HCC1143 [6]; 100 nM): 64%; normalised viability (DU-4475 [7]; 10 nM): 108%; normalised viability (MDA-MB-436; 100 nM): 73.8%; normalised viability (CAL-148 [8]; 10 nM): 105%; normalised viability (BT-474 [9]; 100 nM): 41.7%; normalised viability (CAL-51 [10]; 10 nM): 100%; normalised viability (HCC1937; 100 nM): 30.4%; normalised viability (HDQ-P1 [11]; 10 nM): 95.8%; normalised viability (MFM-223; 100 nM): 108%
CN(C)CCOc1ccc(/C(=C(/CCCl)c2ccccc2)c2ccccc2)cc1 [Toremifene] | 0 | 106 | 88.8 | 93.7 | 109 | 85.4 | 100 | 94.2 | 114 | 118 | 0 | 0 | 0 | 0 | 2.33 | 0 | 0 | 2.47 | 0 | 0 | normalised viability (HCC1143 [6]; 100 nM): 109%; normalised viability (DU-4475 [7]; 10 nM): 106%; normalised viability (MDA-MB-436; 100 nM): 110%; normalised viability (CAL-148 [8]; 10 nM): 108%; normalised viability (BT-474 [9]; 100 nM): 126%; normalised viability (CAL-51 [10]; 10 nM): 107%; normalised viability (HCC1937; 100 nM): 97.5%; normalised viability (HDQ-P1 [11]; 10 nM): 129%; normalised viability (MFM-223; 100 nM): 99.8%
CO[C@H]1C[C@@H]2CC[C@@H](C)[C@@](O)(O2)C(=O)C(=O)N2CCCC[C@H]2C(=O)O[C@H]([C@H](C)C[C@@H]2CC[C@@H](OP(C)(C)=O)[C@H](OC)C2)CC(=O)[C@H](C)/C=C(\C)[C@@H](O)[C@@H](OC)C(=O)[C@H](C)C[C@H](C)/C=C/C=C/C=C/1C [Ridaforolimus] | 8.4 | – | – | – | – | – | – | – | – | – | 0 | 0 | 0 | 0 | 0 | 0 | 0 | 0 | 0 | 12.6 | normalised viability (MDA-MB-468; 10 nM): 61.2%; normalised viability (SK-BR-3; 10 nM): 48.4%; normalised viability (CAL-120 [2]; 10 nM): 48.2%; normalised viability (BT-549 [3]; 10 nM): 62.4%; normalised viability (Hs578T [4]; 10 nM): 50.4%; normalised viability (CAL-85-1; 1 nM): 67.4%; normalised viability (MDA-MB-231; 10 nM): 71.9%; normalised viability (HCC1599; 10 nM): 91.8%; normalised viability (MDA-MB-453 [5]; 1 nM): 44.5%; normalised viability (HCC1143 [6]; 10 nM): 56.4%; normalised viability (DU-4475 [7]; 1 nM): 78.2%; normalised viability (MDA-MB-436; 10 nM): 85.6%; normalised viability (CAL-148 [8]; 1 nM): 60.1%; normalised viability (BT-474 [9]; 10 nM): 60.7%; normalised viability (CAL-51 [10]; 1 nM): 79%; normalised viability (HCC1937; 10 nM): 58.9%; normalised viability (HDQ-P1 [11]; 1 nM): 110%; normalised viability (MFM-223; 10 nM): 45.2%
